{"source": "patent US7902174B2", "about": "“Antiviral composition” (priority 2009, dated 2011)", "key": {"[1]": {"tested_on": "Human Immunodeficiency Virus", "experiment": "Anti-HIV testing in cell culture: inhibition of cell-to-cell transmission of HIV measured as p24 protein production", "type": "cell-based", "settings": "for MEAN P24 value: mean of three tests; for % VIRAL CONCENTRATION: relative to 0.0 μM = 100.0; for P24 value as measurement of HIV concentration: separate efficacy tests (samples 1-3)", "protocol": "Testing was performed independently at the NIH using standard testing protocol."}, "Sprague-Dawley rats": {"tested_on": "Sprague-Dawley rats", "experiment": "In vivo toxicity study in rats, oral administration (gavage)", "settings": "increasing amounts up to 2 g/kg body weight", "source_text": "(b) Oral Administration: Sprague-Dawley rats weighing approximately 250 g were orally gavaged with increasing amounts of polysulfate polymethylsulfate dextrin dissolved in sterile water up to a dose of 2 g/kg body weight."}}, "note": "Values joined by “and” are separate entries in the source; they are usually repeats but may differ in a detail not shown here. Identical values can stand only once."}
{"substance": "polysulfate polymethylsulfate dextrin", "values": [{"measurement": "MEAN P24 value", "setting": "[1]; 0.32 μM", "result": 664.0, "unit": "pg/mL"}, {"measurement": "% VIRAL CONCENTRATION", "setting": "[1]; 0.32 μM", "result": 96.1, "unit": "%"}, {"measurement": "P24 value as measurement of HIV concentration", "setting": "[1]; 0.32 μM", "result": "672.3 pg/mL and 654.6 pg/mL and 665.0 pg/mL"}, {"measurement": "MEAN P24 value", "setting": "[1]; 1.0 μM", "result": 371.5, "unit": "pg/mL"}, {"measurement": "% VIRAL CONCENTRATION", "setting": "[1]; 1.0 μM", "result": 53.7, "unit": "%"}, {"measurement": "P24 value as measurement of HIV concentration", "setting": "[1]; 1.0 μM", "result": "407.1 pg/mL and 351.2 pg/mL and 356.1 pg/mL"}, {"measurement": "MEAN P24 value", "setting": "[1]; 3.2 μM", "result": 5.5, "unit": "pg/mL"}, {"measurement": "% VIRAL CONCENTRATION", "setting": "[1]; 3.2 μM", "result": 0.8, "unit": "%"}, {"measurement": "MEAN P24 value", "setting": "[1]; 10 μM", "result": -6.1, "unit": "pg/mL"}, {"measurement": "% VIRAL CONCENTRATION", "setting": "[1]; 10 μM", "result": "−0.9", "unit": "%"}, {"measurement": "MEAN P24 value", "setting": "[1]; 32 μM", "result": -8.8, "unit": "pg/mL"}, {"measurement": "% VIRAL CONCENTRATION", "setting": "[1]; 32 μM", "result": "−1.3", "unit": "%"}, {"measurement": "MEAN P24 value", "setting": "[1]; 100 μM", "result": -27, "unit": "pg/mL"}, {"measurement": "% VIRAL CONCENTRATION", "setting": "[1]; 100 μM", "result": "−3.9", "unit": "%"}, {"measurement": "IC50", "setting": "[1]; average of three separate tests, p24 production, cell-to-cell transmission of HIV, read-out: calculated 50% inhibition (IC50) / average inhibitory concentration 50%", "result": 1.16, "unit": "µM"}, {"measurement": "toxic effects after oral administration", "setting": "Sprague-Dawley rats", "result": "No toxic effects"}]}
